{"source": "ChEMBL document CHEMBL5214988", "about": "“Design, Synthesis, and Biological Evaluation of 5-Formyl-pyrrolo[3,2-b]pyridine-3-carboxamides as New Selective, Potent, and Reversible-Covalent FGFR4 Inhibitors” (J Med Chem, 2022)", "key": {"[1]": {"experiment": "Tmax in ICR mouse at 2 mg/kg, iv measured upto 24 hrs by LC-MS/MS analysis", "assay_type": "ADME, organism-based", "details": "in vivo"}, "[2]": {"experiment": "MRT (0 to t) in ICR mouse at 2 mg/kg, iv measured upto 24 hrs by LC-MS/MS analysis", "assay_type": "ADME, organism-based", "details": "in vivo"}, "[3]": {"experiment": "AUC (0 to t) in ICR mouse at 2 mg/kg, iv measured upto 24 hrs by LC-MS/MS analysis", "assay_type": "ADME, organism-based", "design": "time < 24 hrs, dose 2 mg/kg, route iv", "details": "in vivo"}, "[4]": {"experiment": "Metabolic stability in mouse liver microsomes assessed as half life incubated upto 60 mins in presence of NADPH by LC-MS/MS analysis", "assay_type": "ADME, Microsome", "details": "1 h"}, "[5]": {"experiment": "AUC (0 to infinity) in ICR mouse at 2 mg/kg, iv measured upto 24 hrs by LC-MS/MS analysis", "assay_type": "ADME, organism-based", "design": "time < 24 hrs, dose 2 mg/kg, route iv", "details": "in vivo"}, "[6]": {"experiment": "AUC (0 to infinity) in ICR mouse at 10 mg/kg, po measured upto 24 hrs by LC-MS/MS analysis", "assay_type": "ADME, organism-based", "design": "time < 24 hrs, dose 10 mg/kg, route po", "details": "in vivo"}, "[7]": {"experiment": "AUC (0 to t) in ICR mouse at 10 mg/kg, po measured upto 24 hrs by LC-MS/MS analysis", "assay_type": "ADME, organism-based", "design": "dose 10 mg/kg, time < 24 hrs, route po", "details": "in vivo"}, "[8]": {"experiment": "MRT (0 to t) in ICR mouse at 10 mg/kg, po measured upto 24 hrs by LC-MS/MS analysis", "assay_type": "ADME, organism-based", "details": "in vivo"}, "[9]": {"experiment": "Cmax in ICR mouse at 10 mg/kg, po measured upto 24 hrs by LC-MS/MS analysis", "assay_type": "ADME, organism-based", "design": "dose 10 mg/kg, time < 24 hrs, route po", "details": "in vivo"}, "[10]": {"experiment": "Tmax in ICR mouse at 10 mg/kg, po measured upto 24 hrs by LC-MS/MS analysis", "assay_type": "ADME, organism-based", "details": "in vivo"}, "[11]": {"experiment": "Half life in ICR mouse at 2 mg/kg, iv measured upto 24 hrs by LC-MS/MS analysis", "assay_type": "ADME, organism-based", "details": "in vivo"}, "[12]": {"experiment": "Oral bioavailability in ICR mouse at 10 mg/kg measured upto 24 hrs by LC-MS/MS analysis", "assay_type": "ADME, organism-based", "details": "in vivo"}, "[13]": {"experiment": "Half life in ICR mouse at 10 mg/kg, po measured upto 24 hrs by LC-MS/MS analysis", "assay_type": "ADME, organism-based", "details": "in vivo"}, "[14]": {"experiment": "Observed clearance in ICR mouse at 2 mg/kg, iv measured upto 24 hrs by LC-MS/MS analysis", "assay_type": "ADME, organism-based", "details": "in vivo"}, "[15]": {"experiment": "Cmax in ICR mouse at 2 mg/kg, iv measured upto 24 hrs by LC-MS/MS analysis", "assay_type": "ADME, organism-based", "design": "time < 24 hrs, dose 2 mg/kg, route iv", "details": "in vivo"}}}
{"smiles": "C[C@@H](Oc1cc(NC(=O)c2cn(CCN3CCOCC3)c3cc(Br)c(C=O)nc23)ncc1C#N)c1c(Cl)cncc1Cl", "values": [{"measurement": "Tmax", "setting": "[1]", "result": 4.98, "unit": "min"}, {"measurement": "MRT last at 24 h", "setting": "[2]", "result": 29.4, "unit": "min"}, {"measurement": "AUC(0-t) at 24 h", "setting": "[3]", "result": 702, "unit": "ng·h/mL"}, {"measurement": "t1/2", "setting": "[4]", "result": 696, "unit": "min"}, {"measurement": "AUC(0-inf)", "setting": "[5]", "result": 704, "unit": "ng·h/mL"}, {"measurement": "AUC(0-inf)", "setting": "[6]", "result": 38.6, "unit": "ng·h/mL"}, {"measurement": "AUC(0-t) at 24 h", "setting": "[7]", "result": 29.5, "unit": "ng·h/mL"}, {"measurement": "MRT last at 24 h", "setting": "[8]", "result": 104, "unit": "min"}, {"measurement": "Cmax", "setting": "[9]", "result": 13.4, "unit": "ng/mL"}, {"measurement": "Tmax", "setting": "[10]", "result": 23.4, "unit": "min"}, {"measurement": "half-life", "setting": "[11]", "result": 45.6, "unit": "min"}, {"measurement": "bioavailability", "setting": "[12]", "result": 1.1, "unit": "%"}, {"measurement": "half-life", "setting": "[13]", "result": 196, "unit": "min"}, {"measurement": "clearance", "setting": "[14]", "result": 49.7, "unit": "mL/min/kg"}, {"measurement": "Cmax", "setting": "[15]", "result": 1640, "unit": "ng/mL"}]}
